The values that follow come from patent US8324211B2, “Inhibitors of bruton's tyrosine kinase” (Roche Palo Alto LLC, priority 2008, dated 2012).

A value given as a limit tells only on which side of the number the result lay.

This experiment has as its target T1, Btk enzyme (His-tagged, full-length) (Homo sapiens, UniProt Q06187).
T1 construct: 5-10 nM Btk enzyme (His-tagged, full-length); His
The experiment can be described thus: Bruton's Tyrosine Kinase (Btk) Inhibition Assay (33P filtration capture). To be noted: 100 μM ATP, 30 μM peptide substrate, 30 min at 30° C. The experiment is classed as biochemical. From the text: Bruton's Tyrosine Kinase (Btk) Inhibition Assay
The assay is a capture of radioactive ^33P phosphorylated product through filtration. The interactions of Btk, biotinylated SH2 peptide substrate (Src homology), and ATP lead to phosphorylation of the peptide substrate. Biotinylated product is bound streptavidin sepharose beads. All bound, radiolabeled products are detected by scintillation counter.
Plates assayed are 96-well polypropylene (Greiner) and 96-well 1.2 μm hydrophilic PVDF filter plates (Millipore). Concentrations reported here are final assay concentrations: 10-100 μM compounds in DMSO (Burdick and Jackson), 5-10 nM Btk enzyme (His-tagged, full-length), 30 μM peptide substrate (Biotin-Aca-AAAEEIYGEI-NH2), 100 μM ATP (Sigma), 8 mM imidazole (Sigma, pH 7.2), 8 mM glycerol-2-phosphate (Sigma), 200 μM EGTA (Roche Diagnostics), 1 mM MnCl2 (Sigma), 20 mM MgCl2 (Sigma), 0.1 mg/ml BSA (Sigma), 2 mM DTT (Sigma), 1 μCi^33P ATP (Amersham), 20% streptavidin sepharose beads (Amersham), 50 mM EDTA (Gibco), 2 M NaCl (Gibco), 2 M NaCl w/1% phosphoric acid (Gibco), microscint-20 (Perkin Elmer).
IC50 determinations are calculated from 10 data points per compound utilizing data produced from a standard 96-well plate assay template. One control compound and seven unknown inhibitors were tested on each plate and each plate was run twice. Typically, compounds were diluted in half-log starting at 100 μM and ending at 3 nM.The control compound was staurosporine. Background was counted in the absence of peptide substrate. Total activity was determined in the presence of peptide substrate. The following protocol was used to determine Btk inhibition. • 1) Sample preparation: The test compounds were diluted at half-log increments in assay buffer (imidazole, glycerol-2-phosphate, EGTA, MnCl2, MgCl2, BSA). • 2) Bead preparation […]

T1 sequence (Q06187 whole entry): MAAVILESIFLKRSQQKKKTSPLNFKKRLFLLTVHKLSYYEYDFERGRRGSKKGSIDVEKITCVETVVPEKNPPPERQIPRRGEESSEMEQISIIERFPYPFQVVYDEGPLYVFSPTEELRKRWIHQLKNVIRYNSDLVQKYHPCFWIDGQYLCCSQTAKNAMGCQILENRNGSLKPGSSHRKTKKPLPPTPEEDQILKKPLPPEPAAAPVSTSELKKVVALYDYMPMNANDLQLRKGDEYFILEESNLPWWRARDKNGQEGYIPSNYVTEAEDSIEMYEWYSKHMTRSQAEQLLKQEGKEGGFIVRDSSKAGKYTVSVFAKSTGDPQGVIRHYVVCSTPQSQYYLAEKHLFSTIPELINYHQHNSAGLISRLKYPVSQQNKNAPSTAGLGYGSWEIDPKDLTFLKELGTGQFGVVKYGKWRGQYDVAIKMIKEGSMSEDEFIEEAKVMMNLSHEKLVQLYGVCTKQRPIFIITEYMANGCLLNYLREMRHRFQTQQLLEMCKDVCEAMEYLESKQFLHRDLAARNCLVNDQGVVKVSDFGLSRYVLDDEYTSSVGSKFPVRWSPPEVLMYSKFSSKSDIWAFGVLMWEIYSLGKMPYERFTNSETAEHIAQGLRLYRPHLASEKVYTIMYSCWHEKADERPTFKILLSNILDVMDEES

Take `CN(C)c1ccc2c(c1)CCN(c1cccc(-c3cc(Nc4ccc(C(=O)N5CCOCC5)cn4)c4nccn4n3)c1CO)C2=O` [II-1, 6-Dimethylamino-2-(2-hydroxymethyl-3-{8-[5-(morpholine-4-carbonyl)-pyridin-2-ylamino]-imidazo[1,2-b]pyridazin-6-yl}-phenyl)-3,4-dihydro-2H-isoquinolin-1-one]: the IC50 – broadly, the concentration at which inhibition is half-maximal – is < 10 nM.
The figure for `O=C(c1ccc(Nc2cc(-c3cccc(N4CCc5cc(C6CC6)ccc5C4=O)c3CO)nn3ccnc23)nc1)N1CCOCC1` [II-2, 6-Cyclopropyl-2-(2-hydroxymethyl-3-{8-[5-(morpholine-4-carbonyl)-pyridin-2-ylamino]-imidazo[1,2-b]pyridazin-6-yl}-phenyl)-3,4-dihydro-2H-isoquinolin-1-one] is < 10 nM; for `CN(C)c1ccc2c(c1)CCN(c1cccc(-c3cc(Nc4ccc(C(=O)N5CCOCC5)cn4)c4nccn4c3)c1CO)C2=O` [II-4, 6-Dimethylamino-2-(2-hydroxymethyl-3-{8-[5-(morpholine-4-carbonyl)-pyridin-2-ylamino]-imidazo[1,2-a]pyridin-6-yl}-phenyl)-3,4-dihydro-2H-isoquinolin-1-one] it is < 10 nM.
